# Key:
# [1] = test system: K562; assay: Antiproliferative activity against human K562 cells after 48 hrs by MTT assay; assay type: functional, cell-based; conditions: K562, 48 h
# [2] = test system: PC-3; assay: Induction of apoptosis in human PC3 cells assessed as increase in p53 protein expression after 48 hrs by Western blot method; assay type: functional, cell-based
# [3] = test system: PC-3; assay: Induction of apoptosis in human PC3 cells assessed as late apoptotic cells at 10 uM after 24 hrs by Annexin-V FITC/7-AAD staining based flow cytometry (reference value: 0.31%); assay type: functional
# [4] = test system: PC-3; assay: Induction of apoptosis in human PC3 cells assessed as caspase 3A negative cells at 10 uM after 24 hrs by flow cytometry (reference value: 97.5%); assay type: functional
# [5] = test system: PC-3; assay: Induction of apoptosis in human PC3 cells assessed as early apoptotic cells at 0.1 uM after 24 hrs by Annexin-V FITC/7-AAD staining based flow cytometry (reference value: 0.1%); assay type: functional
# [6] = test system: PC-3; assay: Induction of apoptosis in human PC3 cells assessed as caspase 3A positive cells at 0.1 uM after 24 hrs by flow cytometry (reference value: 2.45%); assay type: functional
# [7] = test system: PC-3; assay: Induction of apoptosis in human PC3 cells assessed as early apoptotic cells at 1 uM after 24 hrs by Annexin-V FITC/7-AAD staining based flow cytometry (reference value: 0.1%); assay type: functional
# [8] = test system: PC-3; assay: Induction of apoptosis in human PC3 cells assessed as live cells at 0.1 uM after 24 hrs by Annexin-V FITC/7-AAD staining based flow cytometry (reference value: 98.8%); assay type: functional
# [9] = test system: PC-3; assay: Induction of apoptosis in human PC3 cells assessed as late apoptotic cells at 0.1 uM after 24 hrs by Annexin-V FITC/7-AAD staining based flow cytometry (reference value: 0.31%); assay type: functional
# [10] = test system: MDA-MB-231; assay: Antiproliferative activity against human MDA-MB-231 cells after 48 hrs by MTT assay; assay type: functional, cell-based; conditions: MDA-MB-231, 48 h
# [11] = test system: PC-3; assay: Induction of apoptosis in human PC3 cells assessed as necrotic cells at 10 uM after 24 hrs by Annexin-V FITC/7-AAD staining based flow cytometry (reference value: 0.02%); assay type: functional
# [12] = test system: PC-3; assay: Induction of apoptosis in human PC3 cells assessed as increase in caspase-3 protein expression after 48 hrs by Western blot method; assay type: functional, cell-based
# [13] = test system: PC-3; assay: Induction of apoptosis in human PC3 cells assessed as necrotic cells at 0.1 uM after 24 hrs by Annexin-V FITC/7-AAD staining based flow cytometry (reference value: 0.02%); assay type: functional
# [14] = test system: PC-3; assay: Induction of apoptosis in human PC3 cells assessed as downregulation of Bcl2 protein expression after 48 hrs by Western blot method; assay type: functional, cell-based
# [15] = test system: PC-3; assay: Induction of apoptosis in human PC3 cells assessed as late apoptotic cells at 1 uM after 24 hrs by Annexin-V FITC/7-AAD staining based flow cytometry (reference value: 0.31%); assay type: functional
# [16] = test system: PC-3; assay: Induction of apoptosis in human PC3 cells assessed as caspase 3A negative cells at 1 uM after 24 hrs by flow cytometry (reference value: 97.5%); assay type: functional
# [17] = test system: A549; assay: Antiproliferative activity against human A549 cells after 48 hrs by MTT assay; assay type: functional, cell-based; conditions: A549, 48 h
# [18] = test system: PC-3; assay: Induction of apoptosis in human PC3 cells assessed as increase in active caspase 3A after 24 hrs by flow cytometry; assay type: functional, cell-based
# [19] = test system: PC-3; assay: Antiproliferative activity against human PC3 cells after 48 hrs by MTT assay; assay type: functional, cell-based; conditions: PC-3, 48 h
# [20] = test system: PC-3; assay: Induction of apoptosis in human PC3 cells assessed as caspase 3A positive cells at 10 uM after 24 hrs by flow cytometry (reference value: 2.45%); assay type: functional
# [21] = test system: PC-3; assay: Induction of apoptosis in human PC3 cells assessed as necrotic cells at 1 uM after 24 hrs by Annexin-V FITC/7-AAD staining based flow cytometry (reference value: 0.02%); assay type: functional
# [22] = test system: PC-3; assay: Induction of apoptosis in human PC3 cells assessed as live cells at 1 uM after 24 hrs by Annexin-V FITC/7-AAD staining based flow cytometry (reference value: 98.8%); assay type: functional
# [23] = test system: PC-3; assay: Induction of apoptosis in human PC3 cells assessed as early apoptotic cells at 10 uM after 24 hrs by Annexin-V FITC/7-AAD staining based flow cytometry (reference value: 0.1%); assay type: functional
# [24] = test system: PC-3; assay: Induction of apoptosis in human PC3 cells assessed as caspase 3A negative cells at 0.1 uM after 24 hrs by flow cytometry (reference value: 97.5%); assay type: functional
# [25] = test system: PC-3; assay: Induction of apoptosis in human PC3 cells assessed as live cells at 10 uM after 24 hrs by Annexin-V FITC/7-AAD staining based flow cytometry (reference value: 98.8%); assay type: functional
# [26] = test system: PC-3; assay: Induction of apoptosis in human PC3 cells assessed as caspase 3A positive cells at 1 uM after 24 hrs by flow cytometry (reference value: 2.45%); assay type: functional
compound,measurement,setting,value
C/C=C(/CO)[C@H]1C[C@@H]2c3[nH]c4ccccc4c3C[C@H]3N2C(=O)[C@@]13COC,IC50,[1],1220 nM
same,Activity,[2],Dose-dependent effect
same,Activity,[3],8.97%
same,Activity,[4],89.1%
same,Activity,[5],0.27%
same,Activity,[6],2.89%
same,Activity,[7],0.7%
same,Activity,[8],98.3%
same,Activity,[9],0.56%
same,IC50,[10],1840 nM
same,Activity,[11],5.05%
same,Activity,[12],Dose-dependent effect
same,Activity,[13],0.85%
same,Activity,[14],Dose-dependent effect
same,Activity,[15],1.14%
same,Activity,[16],95.9%
same,IC50,[17],3260 nM
same,Activity,[18],Dose-dependent effect
same,IC50,[19],740 nM
same,Activity,[20],10.9%
same,Activity,[21],0.87%
same,Activity,[22],97.3%
same,Activity,[23],6.25%
same,Activity,[24],97.1%
same,Activity,[25],79.7%
same,Activity,[26],4.1%

# From ChEMBL document CHEMBL4002635, “A novel monoterpenoid indole alkaloid with anticancer activity from Melodinus khasianus” (Bioorg Med Chem Lett, 2017)
